Experimental data: patent US20220220106A1, “QUINOLINE COMPOUNDS AND PHARMACEUTICAL COMPOSITIONS AND USES THEREOF” (Academy of Military Medical Sciences, priority 2019, published 2022)

Experiments:
[1] = tested on: Enterovirus 71 (EV71) H strain; experiment: In vitro anti-EV71 activity (antiviral activity in RD cells, CellTiter-Glo); type: cell-based; details: for IC50: Enterovirus A, 96 h, EV71 H strain, RD cells, 4 days, CellTiter-Glo, read-out: IC50; for in vitro anti-EV71 activity, in words: EV71, RD cells
Procedure, shortened: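 RD cells infected with 100TCID50 EV71 in DMEM+2% FBS, with compound in 10-point three-fold dilutions, cultured 4 days at 37° C. Cell viability by CellTiter-Glo luminescence; inhibition rate relative to cell control fitted to S-curve for IC50. TD50 derived likewise; SI=TD50/IC50.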

mTORC2 = target: T1, mTORC2 (Homo sapiens, UniProt P42345); experiment: Western blot, phosphorylation of Ser473 of Akt in RD cells (mTORC2 inhibition); type: cell-based; details: 20 μM, 2 hours, Western blot (FIG. 1)
T1 construct: endogenous in cells; host or cells: RD cells
Description: In order to test the inhibitory activity of the synthesized compounds on the two mTOR complexes, the inhibitory activity experiments of mTORC1 and mTORC2 were carried out. Since mTORC1 and mTORC2 exerted their function by activating the phosphorylation of downstream substrates, the inhibitory activity of the compounds on mTORC1 and mTORC2 could be determined by detecting the phosphorylation levels of the Thr389 site of mTORC1 downstream substrate p70S6K1 and the Ser473 site of mTORC2 downstream substrate Akt.
Pretreatment of Compound:
(1) RD cells were cultured in DMEM medium containing 10% FBS and 1×PS (penicillin and streptomycin were at concentrations 100 IU and 100 μg/mL, respectively) at 37° C. and 5% CO2.
(2) The RD cells (5×10^5 cells/2 mL medium) were inoculated into a 6-well plate and incubated at 37° C. and 5% CO2 for 24 hours.
(3) The cells were washed once with PBS, and the cells were cultured in serum-free medium without nutrients overnight.
(4) Formulation of compounds: […]
Preparation of insulin medium: Insulin was diluted in DMEM medium containing 10% FBS and 1×PS so that the final concentration of insulin was 167 nM.
Pretreatment of compound to be tested: The compound was dissolved in DMSO so that the concentration of the test compound was 20 mM, and the compound was diluted in 167 nM insulin medium to reach a concentration of 20 μM.
Preparation of rapamycin solution: Rapamycin was dissolved in DMSO to a concentration of 10 mM, and the rapamycin was diluted in 167 nM insulin medium to reach a concentration of 20 μM.
(5) The serum-free medium in each well was removed.
(6) 2 mL of complete medium containing DMSO was added to each well as a control carrier. The final concentration of DMSO was 0.2%.
(7) 2 mL of 20 μM rapamycin solution and 20 μM the compound to be tested were added to the designated wells, respectively. The final concentration of DMSO was 0.2%.
(8) The cells were incubated for 2 hours at 37° C. and 5% CO2.
Protein extraction and concentration determination:
(1) The cells were washed once with refrigerated PBS, and then the PBS was discarded.
(2) 150 μL of cell extraction buffer (RIPA, […], catalog number: C1053) was transferred into each well to lyse the cells, and then the resulting cell solution were incubated on ice for 30 minutes.
(3) Centrifugation was performed at 14000 rpm (13000× g) for 30 minutes at 4° C.
(4) The supernatant was transferred into a new eppendorf tube, and the cell lysate was stored at −80° C. before testing.
(5) The protein concentration was determined by BCA method.
Preparation of Buffer Solutions:
(1) 100× Protease inhibitor (Beyotime, catalog number: P1005): 1 mL of redistilled water was added to the protease inhibitor and stirred gently until the solid was completely dissolved.
(2) Lysis Buffer: […] of 100× protease inhibitor and 2× phosphatase inhibitor Cocktails PhosSTOP (Beyotime, catalog number: P1082) were added to 100 mL of the cell extract, and stirred gently until it was completely dissolved.
(3) Electrophoresis Running Buffer:
10×MOPS buffer: 52.33 g of MOPS, 30.29 g of Tris base, 10 mL of 0.5 mol/L EDTA (pH 8.5) and 5 g of SDS was dissolved in 400 mL of redistilled water, stirred to dissolve, and the pH was adjusted to 7.5, then redistilled water was added again to reach a volume of 500 mL; 1×MOPS: 100 mL of 10×MOPS was diluted with redistilled water to 1000 mL.
(4) 1× Transfer Buffer: […] of 10× transfer buffer (144 g of glucine, 30.3 g of trisbase, and distilled water were mixed to reach a volume of 1 L) and 400 mL of methanol were dissolved in 1500 mL of redistilled water, and then the redistilled water was added to reach a volume of 2000 mL. […]

| Compound | IC50 [1] | phosphorylation expression level of Akt (mTORC2) | in vitro anti-EV71 activity, in words [1] |
| --- | --- | --- | --- |
| CCCC(=O)Nc1ccc(-c2ccc3ncc4ccc(=O)n(-c5cccc(C(F)(F)F)c5)c4c3c2)cn1 [HTL-7-05, 9-[3-(6-butyrylamino)pyridyl]-2-oxo-1-[3-(trifluoromethyl)phenyl]-1,2-dihydrobenzo[h][1,6]naphthyridine] | 130 ± 60 nM | significantly down-regulate | – |
| O=C(Cc1ccccc1)Nc1ccc(-c2ccc3ncc4ccc(=O)n(-c5cccc(C(F)(F)F)c5)c4c3c2)cn1 [HTL-7-10, 9-[3-(6-phenylacetylamino)pyridyl]-2-oxo-1-[3-(trifluoromethyl)phenyl]-1,2-dihydrobenzo[h][1,6]naphthyridine] | 390 ± 180 nM | significantly down-regulate | – |
| CCC(=O)Nc1ccc(-c2ccc3ncc4ccc(=O)n(-c5cccc(C(F)(F)F)c5)c4c3c2)cn1 [HTL-6-45, 9-[3-(6-propionylamino)pyridyl]-2-oxo-1-[3-(trifluoromethyl)phenyl]-1,2-dihydrobenzo[h][1,6]naphthyridine] | 27 ± 10 nM | significantly down-regulate | – |
| NC(=O)/C=C/c1ccc2ncc3oc(=O)n(-c4cccc(C(F)(F)F)c4)c3c2c1 [HTL-6-30, (E)-8-(2-carbamoyl-vinyl)-1-[3-(trifluoromethyl)phenyl]oxazolo[5,4-c]quinolin-2(1H)-one] | 3700 ± 210 nM | – | moderate inhibitory activity |
| COc1cc(-c2ccc3ncc4ccc(=O)n(-c5cccc(C(F)(F)F)c5)c4c3c2)cnc1N [HTL-7-19, 9-[3-(6-amino-5-methoxy)pyridyl]-2-oxo-1-[3-(trifluoromethyl)phenyl]-1,2-dihydrobenzo[h][1,6]naphthyridine] | 45 ± 10 nM | significantly down-regulate | – |
| CCCCC(=O)Nc1ccc(-c2ccc3ncc4ccc(=O)n(-c5cccc(C(F)(F)F)c5)c4c3c2)cn1 [HTL-7-08, 9-[3-(6-valerylamino)pyridyl]-2-oxo-1-[3-(trifluoromethyl)phenyl]-1,2-dihydrobenzo[h][1,6]naphthyridine] | 200 ± 20 nM | significantly down-regulate | – |
| O=c1ccc2cnc3ccc(C4=CCC5(CC4)OCCO5)cc3c2n1-c1cccc(C(F)(F)F)c1 [HTL-7-13, 9-(1,4-dioxa-spiro[4.5]dec-7-en-8-yl)-2-oxo-1-[3-(trifluoromethyl)phenyl]-1,2-dihydrobenzo[h][1,6]naphthyridine] | 26300 ± 12900 nM | significantly down-regulate | – |
| O=c1ccc2cnc3ccc(-c4ccc5ncccc5c4)cc3c2n1-c1cccc(C(F)(F)F)c1 [HTL-6-47, 9-(6-quinolyl)-2-oxo-1-[3-(trifluoromethyl)phenyl]-1,2-dihydrobenzo[h][1,6]naphthyridine] | 250 ± 230 nM | significantly down-regulate | – |
| O=c1ccc2cnc3ccc(-c4ccc(F)nc4)cc3c2n1-c1cccc(C(F)(F)F)c1 [HTL-7-01, 9-[3-(6-fluoro)pyridyl]-2-oxo-1-[3-(trifluoromethyl)phenyl]-1,2-dihydrobenzo[h][1,6]naphthyridine] | 70 ± 10 nM | significantly down-regulate | – |
| O=c1ccc2cnc3ccc(-c4ccc(N5CCCC5)nc4)cc3c2n1-c1cccc(C(F)(F)F)c1 [HTL-7-20, 9-[3-(6-pyrrolidinyl)pyridyl]-2-oxo-1-[3-(trifluoromethyl)phenyl]-1,2-dihydrobenzo[h][1,6]naphthyridine] | 100 ± 10 nM | significantly down-regulate | – |
| Cc1ncccc1-c1ccc2ncc3ccc(=O)n(-c4cccc(C(F)(F)F)c4)c3c2c1 [HTL-6-49, 9-[3-(2-methyl)pyridyl]-2-oxo-1-[3-(trifluoromethyl)phenyl]-1,2-dihydrobenzo[h][1,6]naphthyridine] | 70 ± 10 nM | significantly down-regulate | – |
| CN1CCN(c2ccc(-c3ccc4ncc5ccc(=O)n(-c6cccc(C(F)(F)F)c6)c5c4c3)cn2)CC1 [HTL-7-17, 9-{3-[6-(4-methylpiperazin-1-yl)pyridyl]}-2-oxo-1-[3-(trifluoromethyl)phenyl]-1,2-dihydrobenzo[h][1,6]naphthyridine] | 100 ± 30 nM | significantly down-regulate | – |
| COc1ccc(-c2ccc3ncc4ccc(=O)n(-c5cccc(C(F)(F)F)c5)c4c3c2)cn1 [HTL-7-03, 9-[3-(6-methoxy)pyridyl]-2-oxo-1-[3-(trifluoromethyl)phenyl]-1,2-dihydrobenzo[h][1,6]naphthyridine] | 40 ± 10 nM | significantly down-regulate | – |
| Nc1cccc(Nc2ccc3ncc4ccc(=O)n(-c5cccc(C(F)(F)F)c5)c4c3c2)c1 [HTL-6-11, 9-(3-aminophenyl)imino-2-oxo-1-[3-(trifluoromethyl)phenyl]-1,2-dihydrobenzo[h][1,6]naphthyridine] | 890 nM | significantly down-regulate | moderate activity |
| CC(C)(C)OC(=O)Nc1ccc(-c2ccc3ncc4ccc(=O)n(-c5cccc(C(F)(F)F)c5)c4c3c2)cn1 [HTL-7-21, 9-[3-(6-tert-butoxycarbonylamino)pyridyl]-2-oxo-1-[3-(trifluoromethyl)phenyl]-1,2-dihydrobenzo[h][1,6]naphthyridine] | 2080 ± 2290 nM | significantly down-regulate | – |
| O=c1ccc2cnc3ccc(-c4ccc(N5CCOCC5)nc4)cc3c2n1-c1cccc(C(F)(F)F)c1 [HTL-7-18, 9-[3-(6-morpholin-4-yl)pyridyl]-2-oxo-1-[3-(trifluoromethyl)phenyl]-1,2-dihydrobenzo[h][1,6]naphthyridine] | 1800 ± 1170 nM | significantly down-regulate | – |
| COc1ncc(-c2ccc3ncc4ccc(=O)n(-c5cccc(C(F)(F)F)c5)c4c3c2)cn1 [HTL-7-06, 9-[5-(2-methoxy)pyrimidyl]-2-oxo-1-[3-(trifluoromethyl)phenyl]-1,2-dihydrobenzo[h][1,6]naphthyridine] | 50 ± 10 nM | significantly down-regulate | – |
| NC(=O)c1ccc(-c2ccc3ncc4oc(=O)n(-c5cccc(C(F)(F)F)c5)c4c3c2)cc1 [HTL-5-21, 8-(4-carbamoyl)phenyl-1-[3-(trifluoromethyl)phenyl]oxazolo[5,4-c]quinolin-2(1H)-one] | 2000 ± 300 nM | significantly down-regulate | moderate inhibitory activity |
| O=C(Nc1ccc(-c2ccc3ncc4ccc(=O)n(-c5cccc(C(F)(F)F)c5)c4c3c2)cn1)OCc1ccccc1 [HTL-7-14, 9-[3-(6-benzyloxyamido)pyridyl]-2-oxo-1-[3-(trifluoromethyl)phenyl]-1,2-dihydrobenzo[h][1,6]naphthyridine] | 23700 ± 1020 nM | significantly down-regulate | – |
| CC(=O)/C=C/c1cnc2ccc(-c3ccc(C)nc3)cc2c1Nc1cccc(C(F)(F)F)c1 [HTL-2-38, (E)-6-[3-(6-methyl)pyridyl]-4-[3-(trifluoromethyl)phenyl]aminoquinoline-3-butenone] | 2850 ± 1200 nM | – | moderate anti-EV71 activity |
